A word on the Ki: it is a dissociation constant, usually derived from enzyme kinetics or from competition with a known ligand.

The record followed here is ChEMBL document CHEMBL1136363, “Rational approaches towards reversible inhibition of type B monoamine oxidase. Design and evaluation of a novel 5H-Indeno[1,2-c]pyridazin-5-one derivative” (Bioorg Med Chem Lett, 2003).

The target in the assay is T1, Amine oxidase [flavin-containing] A (Homo sapiens, UniProt P21397).
T1 sequence (P21397 whole entry): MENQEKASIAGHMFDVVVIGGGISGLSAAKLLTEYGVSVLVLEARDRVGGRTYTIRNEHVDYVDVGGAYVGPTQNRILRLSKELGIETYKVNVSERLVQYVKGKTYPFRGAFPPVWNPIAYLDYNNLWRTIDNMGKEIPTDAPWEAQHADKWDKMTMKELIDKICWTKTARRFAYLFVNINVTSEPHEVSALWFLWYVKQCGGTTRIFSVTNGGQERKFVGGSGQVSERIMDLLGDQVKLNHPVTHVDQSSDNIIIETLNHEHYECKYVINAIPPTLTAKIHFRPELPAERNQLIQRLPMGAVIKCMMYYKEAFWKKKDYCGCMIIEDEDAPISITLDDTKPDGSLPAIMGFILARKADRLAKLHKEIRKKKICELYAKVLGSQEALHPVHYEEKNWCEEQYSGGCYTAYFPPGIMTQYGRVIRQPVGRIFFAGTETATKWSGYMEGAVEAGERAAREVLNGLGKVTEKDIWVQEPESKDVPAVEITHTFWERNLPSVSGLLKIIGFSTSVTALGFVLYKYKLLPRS
As to the kind of experiment: Inhibitory concentration against Monoamine oxidase A in human placenta.

Consider `Cc1cc2c(nn1)-c1cc(OCCCC(F)(F)F)ccc1C2=O`, for which the Ki is around 100 µM.
